# Test results published in patent US20250161238A1, “NMDAR Antagonists Prevent Ageing and Aging-Associated Conditions and Diseases Through Increasing 20S Proteasome Activity” (priority 2022, published 2025).
# Assays:
# lipid accumulation = assay: Nile red staining of lipid in mouse tissues; format: in vivo; details: mice at 22 months
# Source text: In the next study, the effects of NMDAR blocker on lipid accumulation in liver, brain, muscle, lung, skin, pancreas, and kidney of mice with the presence of Memantine and control mice groups at 22 months were stained with Nile red and investigated.
# (§1) Whole frozen tissues were sectioned with a microtome and fixed in 4% paraformaldehyde, Tissues were washed in PBS and the individual staining methods used in accordance with the manufacturer's recommendations. Total pixels from fluorescence in the images were quantified using Adobe Photoshop software CS2 (Adobe Systems), and normalized to a nuclear stain.
# C. elegans [1] = assay: C. elegans movements (non-moving, swimming); format: in vivo; details: 18th day
# Protocol: Therefore, the movements of the C. elegans grown at 20° C. on standard nematode growth medium(NGM) plates shaked at constant speed at 200 rpm were recorded for 5 minutes on the 18th day. All C. elegans in plate well were individually followed and counted by three different eyes for 5 minutes. […] One of the basic movement of C. elegans in liquid is crawling while the other is swimming. Previously described that swimming is more energetically demanding for C. elegans than the crawling motion. In addition it was stated that having the ability to swim is related to locomotory fatigue, muscle mitochondrial oxidation, a transcriptional oxidative stress response, and changes in carbohydrate and fat metabolism. It was also known that the swimming ability of C. elegans is also related to pharyngeal, intestinal, neuronal functions and strong muscle into old age.
# (§2) To sterilize the animals 300 μL of a 6 mM Fluorodeoxyuridine (FUDR) stock solution was added to 10 ml medium. During the monitoring of their life span, the worms were kept by shaking at a constant speed of 200 rpm. Locomotor activities of the worms were recorded and available.
# C. elegans [2] = assay: C. elegans lipid accumulation by Nile Red staining; format: in vivo
# Source text: In the next study, the effects of NMDAR blocker on lipid accumulation and central body fat and thus the fat metabolism in C. elagans was investigated. As mentioned above Nile red is a lipophilic stain which stain intracellular lipid droplets in cell. Therefore, in the presence of memantine and control C. elegans groups on the 19th day, the amount of fat in the living organisms was investigated by Nile Red staining.
# [3] = humans, 20 mg per day; cited from earlier work
# C. elegans [4] = assay: C. elegans life span in liquid medium; format: in vivo; details: for C. elegans survived compared to control: 20th day
# Source text: C. elegans is a free-living multicellular organism. Clear age-dependent human like physiological changes at the tissue, cellular, and molecular levels make C. elegans a valuable model for research in the field of aging and life span studies (Ambros, 2006). Accordingly, it was investigated how NMDAR blockers affact the life span of C. elegans. The use of drugs in the C. elegans related studies has been applied in different ways. The drugs were either applied to the LB medium with bacteria OP50, before spreading onto Nematode Growth Medium (NGM) plates (LB medium method), or to the NGM with live (NGM live method) or dead bacteria (NGM dead method), or spotting the drug solution to the surface of plates directly (spot dead method), or growing the worms in liquid medium (liquid growing method) (Ambros, 2006). Liquid growing method achieved the best absorption efficiency in worms. […] Therefore in this invention all the experiements related with the C. elegans were completed in liquid medium. In order to understand the effectiveness of the drug according to the onset time, the memantin was added to the medium on the 1st, 7th and 14th days in a 24-day period and the number of viable worms were determined on the 20nd day.
# C. elegans strains used in this study were gift from Dr. Deniz Aksoy, Faculty of Sciency-Trakya University-Turkey. Preparation of liquid culture of C. elegans was prepared according to the Stiernagle, T. Maintenance of C. elegans (Feb. 11, 2006), WormBook, http://www.wormbook.org. Animals were grown on nematode growth medium (NGM) (50 mM NaCl, 2% agar, […], 5 mg/L cholesterol, 1.0 mM CaCl2), 1.0 mM MgSO4, 25 mM potassium phosphate, pH 6.0) seeded with Escherichia coli OP50 at 20° C. using standard methods.
# For this purpose, the method described by Sulston, J. & Hodgkin, J. was followed. (See, Methods. in: Wood, W. B. (ed.) The Nematode Caenorhabditis elegans. (1988) Cold Spring Harbor Laboratory, Cold Spring Harbor: 587-606.; Solis, G. M., Petrascheck, M. Measuring Caenorhabditis elegans Life Span in 96 Well Microtiter Plates. 2011, J. Vis. Exp. (49)) Two-3 days old worms with eggs growing in NGM were transferred to 50 ml flask using S-medium. After centrifugation, worms were treated with 20% Alkaline Hypochlorite Solution and the eggs were transferred to the S-medium after washing with S-medium.
# as §2
# melanin and lipofuscin = assay: Melanin and lipofuscin staining of mouse tissues; format: in vivo; details: mice at 22 months
# Source text: as §1
smiles,measurement,setting,value
"CC12CC3CC(C)(C1)CC(N)(C3)C2 [memantine, 3,5-dimethyladamantan-1-amine]","amount of lipid in liver, brain, muscle, lung, and skin",lipid accumulation,less than that of the control group
same,amount of lipid in pancreas and kidney,lipid accumulation,No clear difference
same,number of C. elegans that can swim compared to without treatment,C. elegans [1],"2,4 times"
same,lipid accumulation in control group compared to treated,C. elegans [2]; 19th day,more than 2 fold
same,lipid accumulation in control group compared to treated,C. elegans [2]; 20th day,more than 2 fold
same,serum levels,[3],500 to 1000 nM
same,C. elegans survived compared to control,C. elegans [4]; memantin started on day 7 or day 1,~3 times
same,C. elegans survived compared to control,C. elegans [4]; memantin started on the 14th day,67%
same,worms survived compared to no-treatment,C. elegans [4]; day 21,4 times
same,life span of C. elegans,C. elegans [4]; log-rank (Kaplan-Meier),increase
same,amount of lipofuscin (liver),melanin and lipofuscin,statistically decreased
same,amount of melanin (skin),melanin and lipofuscin,statistically decreased
